Results reported in ChEMBL document CHEMBL1201862, “PubChem BioAssay data set” (2004).
Active and inactive are the calls of the source.

Columns and labels:
[1] = P. falciparum Dd2 growth inhibitors, dose response, SYBR Green, dry powder samples, set 9 (AID 1159568); type: functional, cell-based
[2] = target: Troponin, cardiac muscle (Homo sapiens, UniProt P19429+P45379+P63316); assay: Fluorescence-based biochemical high throughput dose response assay for activators of the calcium sensitivity of cardiac Regulated Thin Filaments (RTF). [Related pubchem assays (depositor defined):AID493008, AID493018, AID504382, AID504383]; type: protein-complex assay
[3] = test system: Vero; assay: cells; type: functional; conditions: Chlorocebus sabaeus
[4] = miR-122 activators in hepatoma reporter cells, dose response, cell-based, Huh7 psiCHECK-miR122, Renilla luciferase, cherry-picked (AID 651956); type: functional;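 note: huh7 hepatoma cells stably carrying a psiCHECK-2 miR-122 sensor plasmid; renilla luciferase signal reporting endogenous miR-122 activity after 48 h compound exposure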
[5] = target: Paired box protein Pax-8 (Homo sapiens, UniProt Q06710); assay: inhibitors of PAX8-driven TPO luciferase reporter, dose response, RMG-I cells, cherry-pick (AID 687027); type: functional, cell-based;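 note: luciferase reporter driven by Pax8 target thyroperoxidase promoter measured by SteadyGlo luminescence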
[6] = inhibitors of PGC1a acetylation in cells, dose response, cell-based, cherry-picked samples (AID 720514); type: functional;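 note: potency may reflect raised or lowered acetylation signal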
[7] = HEK293T cytotoxicity, dose response, cytotoxicity control for miR-122 modulator project, cell-based, inhibitor set, cherry-pick, set 2 (AID 720697); type: functional
[8] = HEK293T cytotoxicity, dose response, cytotoxicity control for miR-122 modulator project, cell-based, activator set, cherry-pick (AID 720690); type: functional;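 note: HEK293T human cells scored for general mammalian cytotoxicity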
[9] = non-specific cell cytotoxicity, dose response, cytotoxicity control for PAX8 inhibitor project, plate reader, dry powder samples (AID 743021); type: functional, cell-based
[10] = inhibitors of intracellular T. cruzi replication, confirmation, NIH3T3 host cells, beta-gal luminescence (AID 2044); type: functional, cell-based;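 note: intracellular parasites grown in NIH/3T3 mouse fibroblasts as host cells; luminescent beta-galactosidase reporter signal from transgenic T. cruzi replicating inside host cells; inhibitors lower the luminescence signal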
[11] = cytotoxicity toward NIH3T3 fibroblasts, dose response, counter-screen, cell-based, ATP luminescence, mouse fibroblasts (AID 2010); type: functional;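 note: cells exposed to compound for about 90 hours before reading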
[12] = cells; conditions: A549
[13] = cells; conditions: HEK293
[14] = inhibitors of firefly luciferase expression or activity, dose response, H4 neuroglioma cells, luminescence (AID 1990); type: functional, cell-based
[15] = luciferase reporter signal reduction – luminescence, H4-C neuroglioblastoma cells, dose response (AID 2458); type: functional, cell-based;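 note: H4 neuroglioblastoma cells stably carrying a luciferase reporter gene fusion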
[16] = cells; type: functional, cell-based
[17] = Luminescence Cell-Based Dose Response HTS to Identify Inhibitors of 5'UTR Stem-Loop Driven Prion Protein mRNA Translation in H4 Neuroglioblastoma Cells. [Related pubchem assays: 1827 (Project Summary), 1813 (Primary HTS)]; type: functional
[18] = target: T1, Heat shock factor protein 1 (Mus musculus, UniProt P38532); assay: inhibition of MG132-induced HSE-luciferase signal, confirmation, cell-based, NIH3T3, luminescence, dose retest (AID 2382); type: functional;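 note: NIH3T3 fibroblasts with HSF1-driven luciferase reporter stressed by proteasome inhibitor MG132; luminescence from HSF1-driven luciferase expression after 8 hours of MG132 stress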
T1 sequence (P38532 whole entry): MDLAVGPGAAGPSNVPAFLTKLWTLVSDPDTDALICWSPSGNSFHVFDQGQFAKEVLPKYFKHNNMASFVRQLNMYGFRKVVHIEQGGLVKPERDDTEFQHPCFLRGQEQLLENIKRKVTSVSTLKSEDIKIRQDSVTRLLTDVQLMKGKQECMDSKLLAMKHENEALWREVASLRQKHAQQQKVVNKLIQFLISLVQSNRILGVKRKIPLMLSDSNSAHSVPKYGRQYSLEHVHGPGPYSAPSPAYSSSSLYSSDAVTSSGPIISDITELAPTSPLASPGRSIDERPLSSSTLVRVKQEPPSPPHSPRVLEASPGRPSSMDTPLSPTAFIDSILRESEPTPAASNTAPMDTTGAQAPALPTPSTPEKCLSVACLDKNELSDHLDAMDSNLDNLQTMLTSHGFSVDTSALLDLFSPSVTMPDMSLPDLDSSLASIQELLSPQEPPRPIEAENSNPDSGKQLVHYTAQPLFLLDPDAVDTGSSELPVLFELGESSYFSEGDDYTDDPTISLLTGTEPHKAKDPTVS

[19] = inhibitors of SNCA 5'UTR-driven reporter translation, confirmation, H4 neuroglioma cells, luminescence (AID 1988); type: functional, cell-based
[20] = target: Luciferin 4-monooxygenase (Photinus pyralis, UniProt P08659); assay: firefly luciferase enzyme inhibitors, dose response, biochemical, luminescence (AID 1891)
[21] = Luminescence Cell-Based Dose Confirmation HTS to Identify Inhibitors of Platelet Dense Granule Release. [Related pubchem assays: 1663 (Primary HTS), 1678 (Summary of Project)]; type: functional
[22] = Luminescence-based counterscreen assay for KLF5 inhibitors: dose response cell-based high throughput screening assay to identify cytotoxic compounds using the IEC-6 intestinal epithelial cell line. [Related pubchem assays: 1700 (Primary screen.), 1834 (Confirmation screen.), 1858 (Summary AID.), 1905 (Counterscreen.)]; type: functional
[23] = inhibitors of SNCA 5'UTR-driven translation, confirmation, luminescence, H4 neuroglioblastoma cells, dose confirmation (AID 2454); type: functional, cell-based;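 note: H4 neuroglioblastoma cells carrying an alpha-synuclein 5'UTR luciferase reporter; potency for inhibition of the luciferase signal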
[24] = A549 cell cytotoxicity, dose response, cytotoxicity control, plate reader, cherry-pick, antagonist series (AID 743412); type: functional, cell-based
[25] = HepG2 cell cytotoxicity, dose response, cytotoxicity control, plate reader, cherry-pick, antagonist series (AID 743416); type: functional, cell-based
[26] = LGR2 antagonists, dose response, cell-based, HEK293, CRE-luciferase reporter, cherry pick, set 2 (AID 743343); type: functional;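 note: transfected cells were stimulated with diluted bursicon conditioned medium after compound addition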
[27] = MC4R antagonists, dose response, counter-screen for LGR2 antagonist project, cell-based, plate reader, cherry pick (AID 743444); type: functional;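 note: transfected HEK 293 cells stimulated with alpha-MSH peptide; potency of inhibitors of the alpha-MSH evoked signal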
[28] = HEK293 cell cytotoxicity, dose response, cytotoxicity control, plate reader, cherry-picked samples (AID 743446); type: functional, cell-based
[29] = ADAM10 inhibitors, peptide cleavage, dose response, biochemical, QFRET (AID 743254);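 note: ADAM10 enzyme with the DM2 quenched FRET peptide as substrate; EDANS fluorescence gain as the protease cuts the substrate; inhibitor potency against ADAM10 proteolytic activity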
[30] = target: T2, Disintegrin and metalloproteinase domain-containing protein 17 (Homo sapiens, UniProt P78536); assay: ADAM17 protease inhibitors, dose response, counter-screen for ADAM10 exosite inhibitor project, biochemical, quenched FRET substrate (AID 743253)
[31] = target: Nuclear receptor subfamily 5 group A member 2 (Homo sapiens, UniProt O00482); type: functional, cell-based;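 note: HEK293T cells transfected with LRH-1 and a StAR promoter luciferase reporter; potency for inhibitors that lower LRH-1 driven reporter light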
[32] = target: Steroidogenic factor 1 (Homo sapiens, UniProt Q13285); assay: Counterscreen for inverse agonists of the liver receptor homolog-1 (LRH-1; NR5A2): Luminescence-based cell-based high throughput dose response assay to identify inverse agonists of the Steroidogenic Factor 1 Nuclear Receptor (SF1; NR5A1).; type: functional
[33] = StAR promoter reporter inhibition counter-screen, dose response, counter-screen for LRH-1 inverse agonist project, cell-based, luminescence, luciferase reporter (AID 651969); type: functional
[34] = test system: Cryptococcus neoformans; assay: PubChem AID 686997; type: functional, organism-based
[35] = test system: HeLa; assay: HeLa cell cytotoxicity, dose response, cytotoxicity control, ATP luminescence, cherry-pick samples (AID 687004); type: functional, cell-based
[36] = target: T2, Disintegrin and metalloproteinase domain-containing protein 17; assay: exosite inhibitors of ADAM17, dose response, biochemical (AID 743260)
[37] = ADAM10 protease inhibitors, dose response, selectivity assay for ADAM17 exosite inhibitor project, biochemical, FRET peptide substrate, recombinant human ADAM10 (AID 743259);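 note: ADAM10 enzyme cleaving a FRET peptide substrate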
[38] = target: T3, Small ubiquitin-related modifier 2 (Homo sapiens, UniProt P61956); assay: SUMO2–SIM peptide binding inhibitors, dose response, selectivity assay for SUMO1 interaction inhibitor project, biochemical, fluorescence polarization, uHTS hits (AID 624385); type: functional; conditions: read-out: IC50_Mean
[39] = target: T4, Small ubiquitin-related modifier 1 (Homo sapiens, UniProt P63165); assay: inhibitors of SUMO1 peptide binding, dose response, biochemical, fluorescence polarization, uHTS hits (AID 624382); type: functional; conditions: read-out: IC50_Mean
[40] = target: T3, Small ubiquitin-related modifier 2; assay: inhibitors of SUMO2 protein-protein interaction, dose response, selectivity assay for SUMO1 interaction inhibitor project, biochemical, FRET, human SUMO2, uHTS hits (AID 624384); type: functional; conditions: read-out: IC50_Mean
[41] = target: T4, Small ubiquitin-related modifier 1; assay: inhibitors of SUMO1 partner interactions, dose response, biochemical, FRET (AID 624383); type: functional; conditions: read-out: IC50_Mean

With `COc1ccc2c3c([nH]c2c1)[C@H](CO)N(C(C)=O)CC31CN(Cc2ccccc2Cl)C1` the AC50 [1] was 3 µM (active).
For `Cn1ncc2c(ON=C(N)c3ccc(C(F)(F)F)cc3)ncnc21`, the EC50 [2] was > 71.5 µM (inactive), the CC50 [3] was 8.98 µM (active) and the AC50 [4] was 20.8 µM (active). The AC50 [5] was 6.71 µM (active), the AC50 [6] was 4.71 µM (active) and the AC50 [7] was 9.49 µM (active). The AC50 [8] was 14 µM (active) and the AC50 [9] was 66.7 µM (active).
In the case of `Cc1ccc2nc3c(cc(C(N)=S)c(=N)n3CCCOC(C)C)c(=O)n2c1`, the EC50 [10] is reported as 4.43 µM (active), the EC50 [11] is reported as 9.45 µM (active) and the AC50 [12] is reported as 33.9 µM (active). For the same compound, the AC50 [13] was > 52 µM (inactive).
In the case of `CCCS(=O)(=O)c1cnc(C2COc3ccccc3O2)nc1N` (centres undefined), the EC50 [14] is reported as 0.197 µM (active), the EC50 [15] is reported as 0.862 µM (active) and the EC50 [16] is reported as > 12 µM (inconclusive). The EC50 [17] was 0.132 µM (active), the EC50 [18] was < 0.16 µM (active) and the EC50 [19] was < 0.1 µM (active). The EC50 [20] was 14.4 µM (active), the EC50 [21] was 3.05 µM (active) and the IC50 [22] was > 39.8 µM (not active). The EC50 [23] was 1.06 µM (active), the AC50 [24] was 34.2 µM (active) and the AC50 [25] was 40.1 µM (active). The AC50 [26] was 1.45 µM (active), the AC50 [27] was 1.2 µM (active) and the AC50 [28] was 26.6 µM (active).
In the case of `Cc1ccc(S(=O)(=O)N2CC[C@H]3[C@H](CO)Nc4ccc(-c5cccc(C(=O)N(C)C)c5)cc4[C@H]32)cc1`, the AC50 [1] is reported as 3.07 µM (active).
For `Oc1ccc(C[C@H]2CNC(=S)N2CC2CCCN2C[C@H](Cc2ccccc2)N2C[C@H](Cc3ccc(O)cc3)N(CC3CCCCC3)C2=S)cc1` (some centres undefined), the IC50 [29] was 7.86 µM (active) and the IC50 [30] was > 69.5 µM (inactive).
In the case of `Cc1cc(OCC(=O)Nc2nccs2)c2c(C)cc(=O)oc2c1`, the IC50 [31] is reported as 0.168 µM (active), the IC50 [32] is reported as 0.112 µM (active) and the IC50 [33] is reported as 35.9 µM (inactive).
With `COC(=O)C1=C(C)N(Cc2ccc(Br)cc2)C(=S)NC1c1ccc(F)cc1` (centres undefined) the AC50 [34] was 23.2 µM (active), the AC50 ([34]; Cryptococcus neoformans) was 40.3 µM (active) and the AC50 [35] was > 52 µM (inactive). For the same compound, the AC50 ([35]; Homo sapiens) was > 47 µM (inactive), the IC50 [36] was > 69.6 µM (inactive) and the IC50 [37] was 52.8 µM (inactive).
With `COc1ccc(C=NNc2ccc(S(=O)(=O)Nc3ccccc3C(=O)O)cc2[N+](=O)[O-])c(OC)c1` the IC50 [38] was 3.82 µM (active), the IC50 [39] was 5.26 µM (active) and the IC50 [40] was 6.34 µM (active). The IC50 [41] was 50.9 µM (inactive).
